System: common lambsquarters
Assay: Field trial Zellwood, Fla.: damage rating on common lambsquarters, sprayed until runoff
Format: in vivo
Conditions: commercial burn down standard; improved by Day 3
Protocol: FIG. 7 is a bar graph setting forth results from a field study on lambsquarters conducted in Florida in January of 2005. Ratings are based on 0 to 10 (no damage to dead). Statistical analysis is by Duncan's MRT (P<0.05).
A field trial was conducted in Zellwood, Fla. The same formulation described in Example 1 was used in the Florida trial. All limonene treatments were made at a 3:1 ratio by volume, represented as water:herbicide formulation ratio, to provide a herbicide composition of 22% limonene (w/w %). Four reps per treatment were used; all treatments were randomly distributed within a rep. The weed species was common lambsquarters (1 to 2 feet in height). Treatments applied were pH 3, 7, 8 and 9 with and without a silicone surfactant, Silwet; each treatment was sprayed until runoff. The commercial burn down standard, Gramoxone (Paraquat) was included. Readings were taken at 1 and 2 hours, and 1, 3 and 7 days. […] Effects with Gramoxone (Paraquat) were first observed on day 1 and improved by Day 3. After the first 2 hours limonene effects were stabilized.

Work on `C[n+]1ccc(-c2cc[n+](C)cc2)cc1` [Gramoxone, Paraquat] yielded an effects first observed of 1 days.

— patent US8153561B2, “Limonene-containing herbicide compositions, herbicide concentrate formulations and methods for making and using same for organic production” (Cutting Edge Formulations, Inc., priority 2005, dated 2012)
